The source of these data is patent US11903386B2, “Strigolactone analogs and their usage in plant control” (King Abdullah University of Science and Technology, priority 2016, dated 2024).

One assay deals with T1, ShHTL7 (Striga hermonthica, UniProt A0A0M3PNA2).
T1 sequence (A0A0M3PNA2 1-271): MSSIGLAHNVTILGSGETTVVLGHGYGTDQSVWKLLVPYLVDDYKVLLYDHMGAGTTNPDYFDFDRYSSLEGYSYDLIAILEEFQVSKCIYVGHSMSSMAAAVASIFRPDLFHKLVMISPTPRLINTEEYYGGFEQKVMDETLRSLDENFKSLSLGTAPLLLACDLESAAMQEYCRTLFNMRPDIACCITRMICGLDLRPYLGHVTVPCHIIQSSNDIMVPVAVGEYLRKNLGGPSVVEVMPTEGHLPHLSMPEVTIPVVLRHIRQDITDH
Briefly: In vitro hydrolysis assay with ShHTL7 (HPLC). To be noted: 10 μM substrate, 37° C. It is filed as biochemical.

For a further assay, the system named is S. hermonthica seeds. Put plainly: Striga hermonthica seed germination bioassay. The format is in vivo. To be noted: for Relative activity in inducing S. hermonthica seed germination: comparison between compounds. How it is done:
Parasitic weed seeds (S. hermonthica and P. ramosa) germination activity was recorded as described previously (Jamil et al., 2012). Six pre-conditioned seed discs were placed in a 90 mm petri-dish containing a filter paper ring wetted with 0.9 ml sterile MilliQ water. […] GR24 solutions with equal concentrations and sterile MilliQ water were included as a positive and negative control, respectively. After application, seeds were incubated at 30° C./25° C. in the dark for two days. Germination (seeds with radical emerging through seed coat) was scored under a binocular microscope, and germination rate (%) was calculated. Statistical analyses were carried out using statistical software package R (version 3.2.2). Dose-response curves and Half Maximum Effective Concentrations (EC50) were calculated to determine optimum amount of MPs. Synthetic strigolactone analog GR24 was used as reference to estimate efficacy of selected compounds. EC50 and estimated response were calculated using drc package (https://cran.r390 project.org/web/packages/drc/) with a Four Parameter Logistic Curve (Dose Response Curve) (Ritz and Streibig, 2005).

The next assay deals with Arabidopsis seedlings. Briefly: Arabidopsis lateral root density and primary root length. The format is in vivo. As to conditions: 1.0 μM, 8 days old seedlings. How it is done:
Sterilized Arabidopsis seeds were sown on half strength MS (with 0.5% sucrose+1% agar, 0.5 g L^−1 MES, pH 5.7) plates supplemented with GR24 or MPs (at 1.0 μM). Plates were stored at 4° C. in darkness for 3 days and then vertically grown at 22° C. in Percival incubator under long day condition (16 h at 22° C./8 h at 16° C. day/night, 60% relative humidity, 4000-5000 LUX white light) for 8 days. For determining the effect on lateral root density and primary root length, at least 30 seedlings were measured using publically available ImageJ software (http://rsbweb.nih.gov/ij/) after scanning roots.

Another assay has as its system rice d10 mutant. Briefly: Rice micro tillering bioassay, d10 mutant. The format is in vivo. To be noted: comparison between compounds. As for the experimental part:
Rice seeds (WT, d3, d10) were surface-sterilized by washing with 70% ethanol for 1 min and then with 2.5% sodium hypochlorite for 15 min. Seeds were then rinsed thoroughly with sterile MilliQ water and incubated in water for 2 days at 30° C. in the dark. Pre-germinated seeds were transferred to filter papers containing ½ strength MS medium in 90 mm petri dishes and incubated at 30° C. under fluorescent white light (130-180 μM m^−2 s^−1) for one week. Seven day-old seedlings were transferred to 50 ml falcon tubes (one seedling per tube) containing modified half-strength Hoagland nutrient solution and grown in greenhouse. Plants were treated with MPs at 2.5 μM-2.5×10-7 μM, using GR24 as positive control. The compounds were applied six times, twice a week. Number of tillers per plant, plant height and fresh biomass were measured at final harvest.
Statistical analyses were carried out using statistical software package R (version 3.2.2). Dose-response curves and Half Maximum Effective Concentrations (EC50) were calculated to determine optimum amount of MPs. Synthetic strigolactone analog GR24 was used as reference to estimate efficacy of selected compounds. EC50 and estimated response were calculated using drc package (https://cran.r390 project.org/web/packages/drc/) with a Four Parameter Logistic Curve (Dose Response Curve) (Ritz and Streibig, 2005).

“Also recorded” adds a separate entry of the source.

Consider `COC(=O)/C(=C/OC1C=C(C)C(=O)O1)c1ccc(Cl)cc1` (stereo not drawn) [MP7], for which, on ShHTL7, the “Hydrolysis rate by ShHTL7” value was “higher hydrolysis activities with MP3 and MP7 than with GR24”. In addition, in the assay with S. hermonthica seeds, the “Relative activity in inducing S. hermonthica seed germination” value was “highest germination activity”. In the assay with Arabidopsis seedlings, the “Increase of primary root length” value is on record as “more efficient than GR24” and the “Reduction of number of lateral roots / lateral root density” value is listed as “slightly more active than GR24; also recorded: more efficient than GR24”. Further, the “Relative activity in inhibiting rice tillering (d10)” value in the assay with rice d10 mutant is recorded as “more active than GR24”.

Consider `COC(=O)/C(=C/OC1C=C(C)C(=O)O1)c1ccccc1` (racemic) [MP3, (E)-methyl 3-(4-methyl-5-oxo-2,5-dihydrofuran-2-yloxy)-2-phenylacrylate], for which the “Hydrolysis rate by ShHTL7” value at ShHTL7 was “finally MP3; also recorded: higher hydrolysis activities with MP3 and MP7 than with GR24”. Also, the “Relative activity in inducing S. hermonthica seed germination” value with S. hermonthica seeds is listed as “less active than MP1”. The “Increase of primary root length” value with Arabidopsis seedlings is “weaker activity than GR24 and MP8”. Moreover, in the assay with rice d10 mutant, the “Relative activity in inhibiting rice tillering (d10)” value is reported as “the most active compound; also recorded: most pronounced inhibitory effect on tillering”.

With `COC(=O)/C(=C/OC1C=C(C)C(=O)O1)c1ccc([N+](=O)[O-])cc1` (racemic) [MP1, (E)-methyl 3-(4-methyl-5-oxo-2,5-dihydrofuran-2-yloxy)-2-(4-nitrophenyl)acrylate], at ShHTL7, the “Hydrolysis rate by ShHTL7” value is “highest hydrolysis rates”. Further, in the assay with S. hermonthica seeds, the “Relative activity in inducing S. hermonthica seed germination” value is reported as “the most potent compound”. For the same compound, the “Striga germination activity (EC50) relative to GR24, times weaker” value in the assay on S. hermonthica seeds (in vivo) is listed as “around 17 times”. In the assay with Arabidopsis seedlings, the “Increase of primary root length” value is “the most active compound; also recorded: more efficient than GR24” and the “Reduction of number of lateral roots / lateral root density” value is “activity higher than that of GR24; also recorded: more efficient than GR24”. In addition, in the assay with rice d10 mutant, the “Relative activity in inhibiting rice tillering (d10)” value is reported as “weaker than GR24”.
